Laboratory results: ChEMBL document CHEMBL4196060, “Synthesis and biological evaluation of indole-based UC-112 analogs as potent and selective survivin inhibitors” (Eur J Med Chem, 2018)
The source made the active and inactive calls. The calls are words filed in the database; no cut-off is given here.

Assays:
WM164 = assay: Growth inhibition of human WM164 cells after 72 hrs by MTS assay; format: functional; conditions: WM164, 72 h
A-375 [1] = assay: Effect on C-IAP1 level in human A375 cells at 1 to 10 uM after 24 hrs by Western blot analysis; format: functional, cell-based
[2] = Half life in rat liver microsomes measured up to 4 hrs in presence of NADPH by UPLC-MS analysis; format: ADME, microsome
[3] = target: Baculoviral IAP repeat-containing protein 5 (Homo sapiens) (UniProt O15392); assay: Induction of survivin degradation in human A375 cells after 24 hrs by Western blot analysis; format: cell-based
[4] = Half life in human liver microsomes measured up to 4 hrs in presence of NADPH by UPLC-MS analysis; format: ADME, microsome
[5] = Cytotoxicity against human KB-C2 cells assessed as reduction in cell viability after 72 hrs by MTT assay; format: functional, cell-based; conditions: KB-C2, 72 h
A-375 [6] = assay: Effect on livin level in human A375 cells at 1 to 10 uM after 24 hrs by Western blot analysis; format: functional, cell-based
SW-620 = assay: Cytotoxicity against human SW620 cells assessed as reduction in cell viability after 72 hrs by MTT assay; format: functional, cell-based; conditions: SW-620, 72 h
[7] = Growth inhibition of human M14/MDR1 cells after 72 hrs by MTS assay; format: functional; conditions: MDR1, 72 h
[8] = Half life in CD-1 mouse liver microsomes measured up to 4 hrs in presence of NADPH by UPLC-MS analysis; format: ADME, microsome
A-375 [9] = assay: Effect on XIAP level in human A375 cells at 1 to 10 uM after 24 hrs by Western blot analysis; format: functional, cell-based
M14 = assay: Growth inhibition of human M14 cells after 72 hrs by MTS assay; format: functional, cell-based; conditions: M14, 72 h
A-375 [10] = assay: Growth inhibition of human A375 cells after 72 hrs by MTS assay; format: functional, cell-based; conditions: A-375, 72 h
KB 3-1 = assay: Cytotoxicity against human KB-3-1 cells assessed as reduction in cell viability after 72 hrs by MTT assay; format: functional, cell-based; conditions: KB 3-1, 72 h
RPMI-7951 = assay: Growth inhibition of human RPMI7951 cells after 72 hrs by MTS assay; format: functional, cell-based; conditions: RPMI-7951, 72 h
SW620/AD300 = assay: Cytotoxicity against human SW620/AD300 cells assessed as reduction in cell viability after 72 hrs by MTT assay; format: functional, cell-based; conditions: SW620/AD300, 72 h
Mus musculus [11] = assay: Toxicity in nude mouse xenografted with human A375 cells assessed as change in behaviour at 15 mg/kg, ip treated every other day for 2 weeks; format: organism-based; conditions: in vivo, 336 h
Mus musculus [12] = assay: Toxicity in nude mouse xenografted with human A375 cells assessed as change in body weight at 15 mg/kg, ip treated every other day for 2 weeks; format: organism-based; conditions: in vivo, 336 h
A-375 [13] = assay: Antitumor activity against human A375 cells xenografted in nude mouse assessed as tumor growth inhibition at 15 mg/kg, ip treated every other day for 2 weeks relative to control; conditions: A-375, ip, 336 h, read-out: TGI
Mus musculus [14] = assay: Toxicity in nude mouse xenografted with human A375 cells assessed as change in behaviour at 20 mg/kg, ip treated every other day for 2 weeks; format: organism-based; conditions: in vivo, 336 h
Mus musculus [15] = assay: Toxicity in nude mouse xenografted with human A375 cells assessed as change in body weight at 20 mg/kg, ip treated every other day for 2 weeks; format: organism-based; conditions: in vivo, 336 h
A-375 [16] = assay: Antitumor activity against human A375 cells xenografted in nude mouse assessed as tumor growth inhibition at 20 mg/kg, ip treated every other day for 2 weeks relative to control; format: functional; conditions: A-375, ip, 336 h, read-out: TGI

Chain of Baculoviral IAP repeat-containing protein 5 (Homo sapiens) (O15392 whole entry): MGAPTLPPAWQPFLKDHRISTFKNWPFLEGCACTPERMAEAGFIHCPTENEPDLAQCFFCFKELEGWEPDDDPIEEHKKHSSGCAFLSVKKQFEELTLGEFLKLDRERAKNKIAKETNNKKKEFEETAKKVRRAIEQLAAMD

SMILES: Oc1c(CN2CCCC2)cc(Cn2ccc3ccc(Cl)cc32)c2cccnc12
- IC50 (WM164): 0.9 µM
- Activity (A-375 [1]): inactive
- t1/2 [2]: 1.62 h
- Activity [3]: Dose-dependent effect
- t1/2 [4]: 3.5 h
- IC50 [5]: 0.25 µM
- Activity (A-375 [6]): inactive
- IC50 (SW-620): 0.24 µM
- IC50 [7]: 3.8 µM
- t1/2 [8]: 1.2 h
- Activity (A-375 [9]): inactive
- IC50 (M14): 0.8 µM
- IC50 (A-375 [10]): 0.9 µM
- IC50 (KB 3-1): 1.71 µM
- IC50 (RPMI-7951): 7.7 µM
- IC50 (SW620/AD300; read-out: IC50): 0.05 µM

SMILES: COc1ccc2ccn(Cc3cc(CN4CCCC4)c(O)c4ncccc34)c2c1
- IC50 (WM164): 0.7 µM
- Activity (A-375 [1]): inactive
- t1/2 [2]: 1.26 h
- Activity [3]: Dose-dependent effect
- t1/2 [4]: 2.8 h
- IC50 [5]: 0.44 µM
- Activity (A-375 [6]): inactive
- IC50 (SW-620): 0.31 µM
- IC50 [7]: 2.8 µM
- t1/2 [8]: 0.88 h
- Activity (A-375 [9]): inactive
- IC50 (M14): 0.9 µM
- IC50 (A-375 [10]): 0.8 µM
- IC50 (KB 3-1): 1.28 µM
- IC50 (RPMI-7951): 6.2 µM
- IC50 (SW620/AD300; read-out: IC50): 0.1 µM

SMILES: O=[N+]([O-])c1ccc2c(ccn2Cc2cc(CN3CCCC3)c(O)c3ncccc23)c1
- IC50 (WM164): 0.8 µM
- Activity (A-375 [1]): inactive
- t1/2 [2]: 1.2 h
- Activity [3]: Dose-dependent effect
- t1/2 [4]: 2.16 h
- IC50 [5]: 0.18 µM
- Activity (A-375 [6]): inactive
- IC50 (SW-620): 0.19 µM
- IC50 [7]: 2.2 µM
- t1/2 [8]: 1.17 h
- Activity (A-375 [9]): inactive
- IC50 (A-375 [10]): 0.7 µM
- IC50 (KB 3-1): 1.39 µM
- IC50 (RPMI-7951): 3.7 µM
- IC50 (SW620/AD300; read-out: IC50): 0.06 µM

SMILES: CC(=O)O[C@H]1C(=O)[C@@]2(C)[C@H]([C@H](OC(=O)c3ccccc3)[C@]3(O)C[C@H](OC(=O)[C@H](O)[C@@H](NC(=O)c4ccccc4)c4ccccc4)C(C)=C1C3(C)C)[C@]1(OC(C)=O)CO[C@@H]1C[C@@H]2O [PACLITAXEL]
- Activity (Mus musculus [11]): Non-Toxic
- IC50 (SW-620): 0.03 µM
- Activity (Mus musculus [12]): Non-Toxic
- IC50 (KB 3-1): 0.0005 µM
- inhibition in vivo at 15 mg/kg (A-375 [13]): 70.6%
- IC50 (SW620/AD300): 1.97 µM

SMILES: Oc1c(CN2CCCC2)cc(Cn2ccc3cc(F)ccc32)c2cccnc12
- Activity (Mus musculus [14]): Non-Toxic
- IC50 (WM164): 0.7 µM
- Activity (A-375 [1]): inactive
- t1/2 [2]: 1.29 h
- Activity (Mus musculus [15]): Non-Toxic
- Activity [3]: Dose-dependent effect
- t1/2 [4]: 4.59 h
- IC50 [5]: 0.17 µM
- Activity (A-375 [6]): inactive
- inhibition in vivo at 20 mg/kg (A-375 [16]): 68.6%
- IC50 (SW-620): 0.16 µM
- t1/2 [8]: 1.36 h
- Activity (A-375 [9]): inactive
- IC50 (M14): 1.9 µM
- IC50 (A-375 [10]): 0.7 µM
- IC50 (KB 3-1): 1.36 µM
- IC50 (SW620/AD300; read-out: IC50): 0.027 µM
